Series [1] is described as follows: The drug is tested on Z-024 corresponding to pig gut metagenome with ENA study accession number: PRJEB37062 and ENA sample accession number: ERS12561823 for biotransformation under anaerobic condition. The drug concentrations were measured over 9 timepoints collected between 0 and 24 hours of incubation by liquid-chromatography-coupled mass spectrometry (LC–MS). The note with it: 2 µM.

Series [2] can be described thus: The drug is tested on Z-017 corresponding to mouse gut metagenome with ENA study accession number: PRJEB37062 and ENA sample accession number: ERS12561816 for biotransformation under anaerobic condition. The drug concentrations were measured over 9 timepoints collected between 0 and 24 hours of incubation by liquid-chromatography-coupled mass spectrometry (LC–MS). The note with it: 2 µM.

A short description of series [3]: The drug is tested on Z-010 corresponding to metagenome with ENA study accession number: PRJEB37062 and ENA sample accession number: ERS12561810 for biotransformation under anaerobic condition. The drug concentrations were measured over 9 timepoints collected between 0 and 24 hours of incubation by liquid-chromatography-coupled mass spectrometry (LC–MS). As to conditions: 2 µM.

Series [4] in a line: The drug is tested on Z-009 corresponding to pig gut metagenome with ENA study accession number: PRJEB37062 and ENA sample accession number: ERS12561809 for biotransformation under anaerobic condition. The drug concentrations were measured over 9 timepoints collected between 0 and 24 hours of incubation by liquid-chromatography-coupled mass spectrometry (LC–MS). As to conditions: 2 µM.

Series [5] can be described thus: The drug is tested on Z-001 corresponding to mouse gut metagenome with ENA study accession number: PRJEB37062 and ENA sample accession number: ERS12561801 for biotransformation under anaerobic condition. The drug concentrations were measured over 9 timepoints collected between 0 and 24 hours of incubation by liquid-chromatography-coupled mass spectrometry (LC–MS). As to conditions: 2 µM.

Series [6] is described as follows: The drug is tested on WLS-350 corresponding to human gut metagenome with ENA study accession number: PRJEB37062 and ENA sample accession number: ERS12561789 for biotransformation under anaerobic condition. The drug concentrations were measured over 9 timepoints collected between 0 and 24 hours of incubation by liquid-chromatography-coupled mass spectrometry (LC–MS). As to conditions: 2 µM.

Series [7] is described as follows: The drug is tested on WLS-220 corresponding to human gut metagenome with ENA study accession number: PRJEB37062 and ENA sample accession number: ERS12561769 for biotransformation under anaerobic condition. The drug concentrations were measured over 9 timepoints collected between 0 and 24 hours of incubation by liquid-chromatography-coupled mass spectrometry (LC–MS). The note with it: 2 µM.

Series [8] in a line: The drug is tested on WLS-086 corresponding to human gut metagenome with ENA study accession number: PRJEB37062 and ENA sample accession number: ERS12561752 for biotransformation under anaerobic condition. The drug concentrations were measured over 9 timepoints collected between 0 and 24 hours of incubation by liquid-chromatography-coupled mass spectrometry (LC–MS). As to conditions: 2 µM.

The nature of series [9]: The drug is tested on WLS-073 corresponding to human gut metagenome with ENA study accession number: PRJEB37062 and ENA sample accession number: ERS12561749 for biotransformation under anaerobic condition. The drug concentrations were measured over 9 timepoints collected between 0 and 24 hours of incubation by liquid-chromatography-coupled mass spectrometry (LC–MS). The note with it: 2 µM.

The nature of series [10]: The drug is tested on WLS-052 corresponding to human gut metagenome with ENA study accession number: PRJEB37062 and ENA sample accession number: ERS12561747 for biotransformation under anaerobic condition. The drug concentrations were measured over 9 timepoints collected between 0 and 24 hours of incubation by liquid-chromatography-coupled mass spectrometry (LC–MS). The note with it: 2 µM.

A short description of series [11]: The drug is tested on WLS-038 corresponding to human gut metagenome with ENA study accession number: PRJEB37062 and ENA sample accession number: ERS12561745 for biotransformation under anaerobic condition. The drug concentrations were measured over 9 timepoints collected between 0 and 24 hours of incubation by liquid-chromatography-coupled mass spectrometry (LC–MS). As to conditions: 2 µM.

The conditions of series [12]: human gut metagenome, 24 h, 2 µM.
For series [13] the following is noted: human gut metagenome, 24 h, 2 µM. The source holds these as a separate data set.
For series [14] the following is noted: human gut metagenome, 24 h, 2 µM. The source holds these as a separate data set.
For series [15] the following is noted: human gut metagenome, 24 h, 2 µM. This is another data set of the same source.
The conditions of series [16]: human gut metagenome, 24 h, 2 µM. The source holds these as a separate data set.
The conditions of series [17]: human gut metagenome, 24 h, 2 µM. This is another data set of the same source.
For series [18] the following is noted: human gut metagenome, 24 h, 2 µM. This is another data set of the same source.
For series [19] the following is noted: human gut metagenome, 24 h, 2 µM. This is another data set of the same source.
For series [20] the following is noted: human gut metagenome, 24 h, 2 µM. This is another data set of the same source.
Note: call rule not given here.

For the compound `CC(CN1c2ccccc2Sc2ccccc21)N(C)C` (stereo not given) [PROMETHAZINE], the “Bacterial Biotransformation” value is listed as “Compound metabolized” in [1]; “Compound NOT metabolized” in [2]; “Compound metabolized” in series [3]; “Compound NOT metabolized” in series [4]; “Compound NOT metabolized” in series [5]; “Compound metabolized” in [6]. Also, the “Bacterial Biotransformation” value in [7] is on record as “Compound metabolized”; in [8], “Compound metabolized”; in [9], “Compound NOT metabolized”; in series [10], “Compound NOT metabolized”; in [11] it was “Compound metabolized”; in series [12], “Compound metabolized”. Further, the “Bacterial Biotransformation” value in [13] is given as “Compound NOT metabolized”; in series [14], “Compound NOT metabolized”; in series [15], “Compound NOT metabolized”; in series [16], “Compound NOT metabolized”; in [17], “Compound NOT metabolized”; in series [18], “Compound metabolized”. In addition, the “Bacterial Biotransformation” value in series [19] is “Compound metabolized”; in series [20] it was “Compound NOT metabolized”.
`OCCOCCN1CCN(C2=Nc3ccccc3Sc3ccccc32)CC1` [QUETIAPINE]: the “Bacterial Biotransformation” value is listed as “Compound metabolized” in [1]; “Compound NOT metabolized” in series [2]; “Compound NOT metabolized” in series [3]; “Compound NOT metabolized” in series [4]; “Compound NOT metabolized” in series [5]; “Compound NOT metabolized” in series [6]. The “Bacterial Biotransformation” value in series [7] was “Compound metabolized”; in series [8] it was “Compound metabolized”; in series [9], “Compound NOT metabolized”; in [10], “Compound NOT metabolized”; in [11] it was “Compound NOT metabolized”; in series [12], “Compound NOT metabolized”. Moreover, the “Bacterial Biotransformation” value in series [13] is “Compound NOT metabolized”; in [14] it was “Compound NOT metabolized”; in series [15], “Compound NOT metabolized”; in series [16], “Compound metabolized”; in series [17], “Compound NOT metabolized”; in series [18] it was “Compound metabolized”. The “Bacterial Biotransformation” value was “Compound metabolized” in series [19] and “Compound NOT metabolized” in series [20].
Regarding `CCC(=O)NCC[C@@H]1CCc2ccc3c(c21)CCO3` [RAMELTEON], the “Bacterial Biotransformation” value in [1] was “Compound metabolized”; in [2], “Compound NOT metabolized”; in series [3] it was “Compound metabolized”; in series [4], “Compound metabolized”; in series [5], “Compound NOT metabolized”; in series [6] it was “Compound metabolized”. Further, the “Bacterial Biotransformation” value is listed as “Compound metabolized” in series [7]; “Compound metabolized” in series [8]; “Compound NOT metabolized” in [9]; “Compound metabolized” in [10]; “Compound metabolized” in series [11]; “Compound metabolized” in series [12]. Moreover, the “Bacterial Biotransformation” value in [13] is on record as “Compound metabolized”; in [14], “Compound metabolized”; in series [15], “Compound NOT metabolized”; in series [16], “Compound NOT metabolized”; in series [17], “Compound metabolized”; in series [18], “Compound metabolized”. The “Bacterial Biotransformation” value in series [19] and in series [20] was “Compound metabolized” throughout.
As for `CNC(=C[N+](=O)[O-])NCCSCc1ccc(CN(C)C)o1` [RANITIDINE], the “Bacterial Biotransformation” value is on record as “Compound NOT metabolized” in series [1]; “Compound metabolized” in series [2]; “Compound metabolized” in [3]; “Compound metabolized” in series [4]; “Compound metabolized” in series [5]; “Compound NOT metabolized” in series [6]. In addition, the “Bacterial Biotransformation” value in [7], in series [8], in series [9], in series [10], in [11] and in [12] was “Compound NOT metabolized” in each case. In addition, the “Bacterial Biotransformation” value in [13] is “Compound NOT metabolized”; in series [14], “Compound metabolized”; in series [15], “Compound NOT metabolized”; in series [16], “Compound metabolized”; in series [17], “Compound NOT metabolized”; in series [18] it was “Compound metabolized”. For the same compound, the “Bacterial Biotransformation” value is listed as “Compound NOT metabolized” in series [19] and “Compound metabolized” in series [20].
In the case of `Nc1nc2ccc(OC(F)(F)F)cc2s1` [RILUZOLE], the “Bacterial Biotransformation” value in series [1] is “Compound metabolized”; in [2], “Compound NOT metabolized”; in series [3], “Compound metabolized”; in series [4] it was “Compound metabolized”; in series [5], “Compound metabolized”; in series [6], “Compound NOT metabolized”. In addition, the “Bacterial Biotransformation” value in [7] is “Compound metabolized”; in series [8] it was “Compound metabolized”; in series [9] it was “Compound metabolized”; in [10], “Compound metabolized”; in [11], “Compound metabolized”; in [12], “Compound NOT metabolized”. The “Bacterial Biotransformation” value is listed as “Compound NOT metabolized” in series [13]; “Compound metabolized” in series [14]; “Compound metabolized” in [15]; “Compound metabolized” in series [16]; “Compound metabolized” in series [17]; “Compound metabolized” in series [18]. The “Bacterial Biotransformation” value in [19] and in series [20] was “Compound metabolized” throughout.
With `CC(C)c1nc(CN(C)C(=O)N[C@H](C(=O)N[C@@H](Cc2ccccc2)C[C@H](O)[C@H](Cc2ccccc2)NC(=O)OCc2cncs2)C(C)C)cs1` [RITONAVIR], the “Bacterial Biotransformation” value in series [1] was “Compound NOT metabolized”; in series [2], “Compound NOT metabolized”; in series [3], “Compound metabolized”; in series [4] it was “Compound metabolized”; in [5], “Compound NOT metabolized”; in series [6], “Compound NOT metabolized”. Also, the “Bacterial Biotransformation” value was “Compound metabolized” in series [7]; “Compound metabolized” in [8]; “Compound metabolized” in series [9]; “Compound metabolized” in series [10]; “Compound metabolized” in series [11]; “Compound NOT metabolized” in series [12]. For the same compound, the “Bacterial Biotransformation” value is on record as “Compound NOT metabolized” in series [13]; “Compound metabolized” in [14]; “Compound metabolized” in series [15]; “Compound metabolized” in series [16]; “Compound metabolized” in series [17]; “Compound metabolized” in series [18]. Besides, the “Bacterial Biotransformation” value in series [19] and in series [20] was “Compound metabolized” in each case.

Values taken from ChEMBL document CHEMBL5724914, “Linking interpersonal differences in gut microbiota composition and drug biotransformation activity” (2024).
